{"source": "patent EP4050002A1", "about": "“ANTI-PROLIFERATIVE AGENTS” (First Health Pharmaceuticals B.V., priority 2021, dated 2022)", "key": {"H9": {"test_system": "H9", "assay": "Cytotoxicity, cell viability", "conditions": "Homo sapiens; H9, 72 hours of incubation, ATP-based method", "description": "The anti-tumor activity of the compounds of the present invention was evaluated as the effect on the proliferation and survival of tumor cells by counting the number of living cells in presence or absence of the compounds (\"cell count method\"), and as the effect on the viability and metabolic activity of the cells, by using particular substrates that are converted by cellular enzymes into coloured or luminescent products, proportionally with metabolic activity and state of the cell, such as the MTS tetrazolium compound (\"MTS method\") or luciferin (\"ATP-based method\") respectively.\nCells were seeded at 3 to 5 x 10^4 cells/well density depending on cell lines and maintained at 37°C in 5% CO2. After 24 hours cells were treated with ascending concentrations of the investigational compounds and the reference (5-fluoro-Uracyl) in a range from 0 to 100 µM. […] After 72 h of incubation with compounds, the cells were detached with trypsin and re-suspended in 1 ml of complete medium; the cell number was evaluated using a Z2 Coulter Counter (\"cell count method\") (Attallah and Johnson, A simple highly sensitive methods for the determination of cell viability using an electronic particle analyzer, Coulter counter J. Immunol. Methods. 1981, 41, 155; Leonardi et al., Activated kinase screening identifies the IKBKE oncogene as a positive regulator of autophagy. Autophagy, 2019, 15, 312). […]"}, "[1]": {"assay": "Plasma protein binding (rapid equilibrium dialysis)", "format": "in vitro ADME", "conditions": "for fraction unbound at 5 h, 10 µM: read-out: % Bound in Plasma ± SD (converted); for recovery at 5 h, 10 µM: read-out: % Recovery ± SD", "description": "In vitro evaluation of test compounds for protein binding in plasma was performed using the rapid equilibrium dialysis method. Ready to use PBS, 9.07-10.00 g, (Sigma Aldrich, catalogue code P3813) was dissolved in 1l of MilliQ water and pH was adjusted to 7.4. 10 mM stock of the test compound was prepared in DMSO. 1 mM solution was prepared by diluting 10 mM stock in methanol. 10 µM working stock was prepared in plasma by spiking 3 µl of 1 mM solution into 297 µl of plasma. An aliquot of 200 µl of plasma containing test compound was spiked into donor well (red chamber) of the insert. 350 µl of PBS was spiked into receiver well (white chamber) of the insert. The plate was incubated at 37 °C in thermo-mixer at 400 rpm for 5 hours. The samples were matrix equilibrated with opposite matrix: 25 µl of plasma sample was matched with 25 µl of blank buffer (PBS) and 25 µl of buffer sample was matched with 25 µl of plasma.\nMatrix matched samples were precipitated with 200 µl of acetonitrile containing Telmisartan 100 ng/ml as internal standard. Buffer samples were of phosphate buffer saline pH 7.4 incubated for 5.5 h along with plasma samples. Blank samples were the ones matched with Phosphate buffer Saline pH 7.4 maintained at room temperature.\nSamples were vortexed at 1000 rpm for 5 min and centrifuged at 4000 rpm for 10 min. Supernatant was separated, diluted 2 fold with water and analyzed in LC-MS/MS.\nTo control samples were processed immediately after the preparation of plasma working stock solutions. These samples serve as a measure for calculating the percentage recovery from plasma and buffer of test compounds. The percentage of plasma unbound (% Unbound) and bound (% Bound) fractions were calculated by the following equations: %Unbound = (1−((Tc−Fc))/(Tc))∗100 [formula] %Bound = 100−%Unbound [formula] %Recovery = 100∗(Fc + Tc)/(T0) [formula]\nTC = Compound concentration as determined by the calculated concentration on the plasma side of the membrane (donor well); FC = Free compound concentration as determined by the calculated concentration on the buffer side of the membrane (receiver well); T0 = Total compound concentration as determined before dialysis.\nThe API400 MS and Agilent 1260 Multi sampler LC were used, with 10 uL injection volumes. Typically, plasma protein binding is determined over ≥ 4 hours at 37°C. Under these conditions chemical and/or enzymatic degradation of compounds can occur. The determination of compound recovery is, therefore, of pivotal importance. A low % recovery can flag a variety of potential problems: • The compound is hydrolytically or metabolically unstable • The compound is highly bound to the rapid equilibrium dialysis device • The compound is poorly soluble"}}, "note": "Where two headings read alike, the source gives them in different places.", "data": [{"smiles": "CCCCc1cn(-c2ccc(-c3nnc(-c4ccccc4C(F)(F)F)o3)cc2)nn1", "note": "[Compound 5]", "values": [{"measurement": "IC50", "setting": "H9", "value": 50, "unit": "µM"}, {"measurement": "fraction unbound at 5 h, 10 µM", "setting": "[1]; Human plasma", "value": 0.0022}, {"measurement": "recovery at 5 h, 10 µM", "setting": "[1]; Human plasma", "value": "79 ± 0.99", "unit": "%"}, {"measurement": "fraction unbound at 5 h, 10 µM", "setting": "[1]; Mouse plasma", "value": 0.0003}, {"measurement": "recovery at 5 h, 10 µM", "setting": "[1]; Mouse plasma", "value": "83.7 ± 13.4", "unit": "%"}, {"measurement": "fraction unbound at 5 h, 10 µM", "setting": "[1]; Rat plasma", "value": 0.0005}, {"measurement": "recovery at 5 h, 10 µM", "setting": "[1]; Rat plasma", "value": "63.4 ± 2.74", "unit": "%"}]}]}
